Legend:
[1] = tested on: EMC virus; assay: Test Example 1: inhibitory effects on EMCV in A549 cells, MTT assay; format: cell-based; details: A549 cells infected with EMC virus, IFN 20 IU/ml, fluvastatin 5 μM, UDCA 61.9 μM as named
[2] = human, in vivo; cited from earlier work
[3] = in vivo, absorbed by passive diffusion; cited from earlier work

## CC(C)n1c(/C=C/C(O)CC(O)CC(=O)O)c(-c2ccc(F)cc2)c2ccccc21 (racemic) [Fluvastatin, [R,S-(E)]-(±)-7-[3-(4-fluorophenyl)-1-(1-methylethyl)-1H-indol-2-yl]-3,5-dihydroxy-6-heptanoate]
[1]; absorbance 550-600 nm, N 10
  Average (MTT absorbance): 0.8638
[1]; vehicle = 0.0
  Survival rate (antivirus activity): 1.7
[2]
  hepatitis patients with continuous increase in transaminase levels: about 1.1%
  share of such patients with increase in blood transaminase levels within 12 weeks after administration: At least 90%
  transaminase level elevation relative to upper limit of normal: at least 3 times the upper limit of normal

## C[C@H](CCC(=O)O)[C@H]1CC[C@H]2[C@@H]3[C@@H](O)C[C@@H]4C[C@H](O)CC[C@]4(C)[C@H]3CC[C@]12C [ursodeoxycholic acid]
[3]
  absorbed drug excreted in the form of bile: about 50%
